Our source for the IC50 and inhibition values is patent US12404279B2, “Deubiquitinase inhibitors and methods of use thereof” (Molecure S.A., priority 2021, dated 2025).

Structures can show the parent of a compound that is named as a salt.

In one assay the target is full-length USP7 (Homo sapiens (Human), UniProt Q93009). The experiment in a line: Enzymatic assay to determine IC50 of USP7 inhibitors (Ubiquitin-Rhodamine 110 cleavage). The assay is classed as biochemical. As to conditions: 0.5 nM USP7, 0.5 μM Ubiquitin-Rhodamine 110, 45 min at 37° C. The method, boiled down: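 Enzyme: 0.5 nM full-length USP7 in HEPES pH 7.5 buffer with NaCl, DTT, BSA and Tween20, given 15 min at room temperature with DTT before compounds were added.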
Sequence of full-length USP7 (Q93009 whole entry): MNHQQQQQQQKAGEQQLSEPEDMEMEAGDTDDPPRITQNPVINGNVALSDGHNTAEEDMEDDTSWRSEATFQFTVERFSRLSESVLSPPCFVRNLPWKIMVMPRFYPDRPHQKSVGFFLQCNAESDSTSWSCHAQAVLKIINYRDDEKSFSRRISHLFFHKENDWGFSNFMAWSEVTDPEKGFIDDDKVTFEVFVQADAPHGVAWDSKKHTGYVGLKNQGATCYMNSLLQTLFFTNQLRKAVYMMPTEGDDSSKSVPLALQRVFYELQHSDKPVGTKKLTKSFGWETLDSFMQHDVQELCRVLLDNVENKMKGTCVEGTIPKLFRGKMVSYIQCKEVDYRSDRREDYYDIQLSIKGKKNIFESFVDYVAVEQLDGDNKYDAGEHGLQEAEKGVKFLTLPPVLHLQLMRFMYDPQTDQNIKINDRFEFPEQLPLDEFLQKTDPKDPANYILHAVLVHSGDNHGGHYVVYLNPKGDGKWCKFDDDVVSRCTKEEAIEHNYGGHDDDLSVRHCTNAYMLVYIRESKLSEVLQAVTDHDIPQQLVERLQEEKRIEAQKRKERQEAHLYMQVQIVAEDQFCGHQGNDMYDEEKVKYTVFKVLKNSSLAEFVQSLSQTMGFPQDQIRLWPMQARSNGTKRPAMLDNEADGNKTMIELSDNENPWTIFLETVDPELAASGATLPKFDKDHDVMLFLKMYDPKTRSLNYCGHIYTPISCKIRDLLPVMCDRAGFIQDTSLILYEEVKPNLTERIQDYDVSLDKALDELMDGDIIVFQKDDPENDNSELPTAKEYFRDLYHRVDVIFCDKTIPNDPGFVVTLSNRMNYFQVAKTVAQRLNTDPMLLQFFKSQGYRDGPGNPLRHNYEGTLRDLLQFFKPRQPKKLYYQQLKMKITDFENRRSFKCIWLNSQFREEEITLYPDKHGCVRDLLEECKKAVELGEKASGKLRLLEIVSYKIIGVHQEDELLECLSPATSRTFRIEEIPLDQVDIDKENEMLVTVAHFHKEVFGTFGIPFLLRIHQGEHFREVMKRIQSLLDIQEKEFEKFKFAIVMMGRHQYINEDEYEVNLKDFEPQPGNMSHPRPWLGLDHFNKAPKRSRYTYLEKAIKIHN
`Cc1cc(C(F)(F)F)nc(-c2ccnc3cc(CN4C(=O)C5C(C4=O)C5(C)C)sc23)c1C(=O)N1[C@H](C)CNC[C@H]1C` (stereo partly drawn) [Example 142, 3-((7-(3-((2R,6R)-2,6-dimethylpiperazine-1-carbonyl)-4-methyl-6-(trifluoromethyl)pyridin-2-yl)thieno[3,2-b]pyridin-2-yl)methyl)-6,6-dimethyl-3-azabicyclo[3.1.0]hexane-2,4-dione 2,2,2-trifluoroacetate] yielded an IC50 of 1000 to 10000 nM. Still for that read-out and setting: for `CCN1CCN(C(=O)c2c(C)cc(C(F)(F)F)nc2-c2ccnc3cc(CN4C(=O)C5C(C4=O)C5(C)C)sc23)CC1` (centres unmarked) [Example 143, 3-((7-(3-(4-ethylpiperazine-1-carbonyl)-4-methyl-6-(trifluoromethyl)pyridin-2-yl)thieno[3,2-b]pyridin-2-yl)methyl)-6,6-dimethyl-3-azabicyclo[3.1.0]hexane-2,4-dione trihydrochloride] the value was less than 500 nM; for `CN[C@H]1CCCN(C(=O)c2c(C)cc(C(F)(F)F)nc2-c2ccnc3cc(CN4C(=O)C5C(C4=O)C5(C)C)sc23)C1` (stereo partly drawn) [Example 144, 6,6-dimethyl-3-((7-(4-methyl-3-((S)-3-(methylamino)piperidine-1-carbonyl)-6-(trifluoromethyl)pyridin-2-yl)thieno[3,2-b]pyridin-2-yl)methyl)-3-azabicyclo[3.1.0]hexane-2,4-dione trihydrochloride], 1000 to 10000 nM. The compound `Cc1cc(Cl)cc(-c2ccnc3ccoc23)c1O[C@H]1CCCNC1` [Example 150, (S)-7-(5-chloro-3-methyl-2-(piperidin-3-yloxy)phenyl)furo[3,2-b]pyridine 2,2,2-trifluoroacetate] came in with an IC50 of 1000 to 10000 nM. `Cc1cc(C(F)(F)F)nc(-c2ccnc3cc(CN4C(=O)C5C(C4=O)C5(C)C)sc23)c1CN1CC[C@@H]2CNC[C@@H]21` (stereo partly drawn) [Example 153, 3-((7-(3-(((3aR,6aR)-hexahydropyrrolo[3,4-b]pyrrol-1(2H)-yl)methyl)-4-methyl-6-(trifluoromethyl)pyridin-2-yl)thieno[3,2-b]pyridin-2-yl)methyl)-6,6-dimethyl-3-azabicyclo[3.1.0]hexane-2,4-dione trihydrochloride] showed a concentration for half-maximal inhibition (IC50) of less than 500 nM. Still for that read-out and setting: the figure for `Cc1c([N+](=O)[O-])cc(-c2ccnc3cc(CN4C(=O)C5C(C4=O)C5(C)C)sc23)n1C[C@@H]1CNCCO1` (stereo partly drawn) [Example 154, 6,6-dimethyl-3-((7-(5-methyl-1-(((S)-morpholin-2-yl)methyl)-4-nitro-1H-pyrrol-2-yl)thieno[3,2-b]pyridin-2-yl)methyl)-3-azabicyclo[3.1.0]hexane-2,4-dione hydrochloride] is less than 500 nM; for `Cc1cc(C(F)(F)F)nc(-c2ccnc3cc(CN4C(=O)C5C(C4=O)C5(C)C)sc23)c1C(=O)N1CC2CCC1CN2` (centres unmarked) [Example 156, 3-((7-(3-(2,5-diazabicyclo[2.2.2]octane-2-carbonyl)-4-methyl-6-(trifluoromethyl)pyridin-2-yl)thieno[3,2-b]pyridin-2-yl)methyl)-6,6-dimethyl-3-azabicyclo[3.1.0]hexane-2,4-dione hydrochloride] it is less than 500 nM; for `Cc1cc(C(F)(F)F)nc(-c2ccnc3cc(CN4C(=O)C5C(C4=O)C5(C)C)sc23)c1CN1CC[C@@H]2CNC[C@@H]21` (stereo partly drawn) [Example 159, 3-((7-(3-(((3aR,6aR)-hexahydropyrrolo[3,4-b]pyrrol-1(2H)-yl)methyl)-4-methyl-6-(trifluoromethyl)pyridin-2-yl)thieno[3,2-b]pyridin-2-yl)methyl)-6,6-dimethyl-3-azabicyclo[3.1.0]hexane-2,4-dione trihydrochloride] it is less than 500 nM. For `CN[C@H]1CCN(Cc2c(C)cc(C(F)(F)F)nc2-c2ccnc3cc(CN4C(=O)C5C(C4=O)C5(C)C)sc23)C1` (stereo partly drawn) [Example 160, 6,6-dimethyl-3-((7-(4-methyl-3-(((S)-3-(methylamino)pyrrolidin-1-yl)methyl)-6-(trifluoromethyl)pyridin-2-yl)thieno[3,2-b]pyridin-2-yl)methyl)-3-azabicyclo[3.1.0]hexane-2,4-dione hydrochloride], the half-inhibitory concentration (IC50) is less than 500 nM.

Still in this assay, the particulars now being: at 1 μM of the test compound; given where IC50 not determined yet; read-out: percent value of inhibition of USP7 activity.
In the case of `Cc1cc(Cl)cc(-c2ccnc3nc(CN4C(=O)C5C(C4=O)C5(C)C)sc23)c1O[C@H]1CCCNC1` (stereo partly drawn) [Example 151, 3-((7-(5-chloro-3-methyl-2-(((S)-piperidin-3-yl)oxy)phenyl)thiazolo[4,5-b]pyridin-2-yl)methyl)-6,6-dimethyl-3-azabicyclo[3.1.0]hexane-2,4-dione dihydrochloride], the inhibition at 1 µM was less than 20%. On to `CC1(C)C2C(=O)N(Cc3cc4nccc(-c5cc(F)cnc5O[C@H]5CCCNC5)c4s3)C(=O)C21` (stereo partly drawn) [Example 152, 3-((7-(5-fluoro-2-(((S)-piperidin-3-yl)oxy)pyridin-3-yl)thieno[3,2-b]pyridin-2-yl)methyl)-6,6-dimethyl-3-azabicyclo[3.1.0]hexane-2,4-dione dihydrochloride], for which the inhibition at 1 µM is less than 20%. Still for that read-out and setting: the figure for `CCOC(=O)c1c(C(F)(F)F)c(C)n(C[C@@H]2CNCCO2)c1-c1ccnc2cc(CN3C(=O)C4C(C3=O)C4(C)C)sc12` (stereo partly drawn) [Example 155, ethyl 2-(2-((6,6-dimethyl-2,4-dioxo-3-azabicyclo[3.1.0]hexan-3-yl)methyl)thieno[3,2-b]pyridin-7-yl)-5-methyl-1-(((S)-morpholin-2-yl)methyl)-4-(trifluoromethyl)-1H-pyrrole-3-carboxylate hydrochloride] is less than 20%; for `CC1(C)C2C(=O)N(Cc3cc4nccc(-c5cc(F)cnc5O[C@H]5CCNC5)c4s3)C(=O)C21` (stereo partly drawn) [Example 157, 3-((7-(5-fluoro-2-(((S)-pyrrolidin-3-yl)oxy)pyridin-3-yl)thieno[3,2-b]pyridin-2-yl)methyl)-6,6-dimethyl-3-azabicyclo[3.1.0]hexane-2,4-dione dihydrochloride] it is less than 20%. The same measure, in the same setting: for `CC1(C)C2C(=O)N(Cc3cc4nccc(-c5cc(F)cnc5O[C@@H]5CCNC5)c4s3)C(=O)C21` (stereo partly drawn) [Example 158, 3-((7-(5-fluoro-2-(((R)-pyrrolidin-3-yl)oxy)pyridin-3-yl)thieno[3,2-b]pyridin-2-yl)methyl)-6,6-dimethyl-3-azabicyclo[3.1.0]hexane-2,4-dione hydrochloride] the value was less than 20%.

Still in this assay, the particulars now being: read-out: percent value of inhibition of USP7 activity.
In the case of `CC1(C)C2C(=O)N(Cc3cc4nccc(-c5ncc[nH]5)c4s3)C(=O)C21` (centres unmarked) [Example 146, 3-((7-(1H-imidazol-2-yl)thieno[3,2-b]pyridin-2-yl)methyl)-6,6-dimethyl-3-azabicyclo[3.1.0]hexane-2,4-dione 2,2,2-trifluoroacetate], the inhibition at 1 µM was less than 20%.

With `CC1(C)C2C(=O)N(Cc3cc4nccc(-c5nccn5CC5CNCCO5)c4s3)C(=O)C21` (centres unmarked) [Example 147, 6,6-dimethyl-3-((7-(1-(morpholin-2-ylmethyl)-1H-imidazol-2-yl)thieno[3,2-b]pyridin-2-yl)methyl)-3-azabicyclo[3.1.0]hexane-2,4-dione 2,2,2-trifluoroacetate], the inhibition at 1 µM is less than 20%. With `CC1(C)C2C(=O)N(Cc3cc4nccc(-c5nc(C(F)(F)F)cn5C[C@@H]5CNCCO5)c4s3)C(=O)C21` (stereo partly drawn) [Example 149, 6,6-dimethyl-3-((7-(1-(((S)-morpholin-2-yl)methyl)-4-(trifluoromethyl)-1H-imidazol-2-yl)thieno[3,2-b]pyridin-2-yl)methyl)-3-azabicyclo[3.1.0]hexane-2,4-dione 2,2,2-trifluoroacetate], the inhibition at 1 µM was less than 20%.
